Patent US7427612B2, “Benzoyl-piperazine derivatives” (Hoffmann-La Roche Inc., priority 2003, dated 2008)

Biological target: T1, mGlyT-1b (Mus musculus, UniProt P28571)
T1 construct: host or cells: Flp-in CHO cells, stably transfected
T1 sequence (P28571 1-651 isoform P28571-2): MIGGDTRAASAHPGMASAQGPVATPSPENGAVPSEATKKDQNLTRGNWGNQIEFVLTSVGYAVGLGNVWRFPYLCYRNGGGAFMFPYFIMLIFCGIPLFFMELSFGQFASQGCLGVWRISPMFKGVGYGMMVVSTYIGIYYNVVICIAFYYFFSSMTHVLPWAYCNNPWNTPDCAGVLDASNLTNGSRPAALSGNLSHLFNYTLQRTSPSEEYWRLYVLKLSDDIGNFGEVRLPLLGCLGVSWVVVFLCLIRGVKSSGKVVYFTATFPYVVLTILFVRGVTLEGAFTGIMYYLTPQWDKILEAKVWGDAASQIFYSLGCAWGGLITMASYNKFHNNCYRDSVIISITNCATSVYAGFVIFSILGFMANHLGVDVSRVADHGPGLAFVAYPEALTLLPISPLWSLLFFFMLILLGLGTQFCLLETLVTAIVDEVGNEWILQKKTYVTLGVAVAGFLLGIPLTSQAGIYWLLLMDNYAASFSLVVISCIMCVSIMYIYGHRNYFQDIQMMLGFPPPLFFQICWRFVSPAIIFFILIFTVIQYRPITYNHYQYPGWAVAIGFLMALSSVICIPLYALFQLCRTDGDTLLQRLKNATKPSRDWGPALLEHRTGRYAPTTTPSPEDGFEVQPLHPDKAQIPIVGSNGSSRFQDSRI
Test: Glycine uptake inhibition assay (mGlyT-1b)
Assay type: cell-based
Conditions: inhibition of [3H]-glycine uptake in Flp-in-CHO cells stably transfected with mGlyT1b cDNA; 20 min at 22° C.
Protocol: DMEM complete medium: Nutrient mixture F-12 (Gibco Life-technologies), fetal bovine serum (FBS) 5%, (Gibco life technologies), Penicillin/Streptomycin 1% (Gibco life technologies), Hygromycin 0.6 mg/ml (Gibco life technologies), Glutamine 1 mM Gibco life technologies)
Uptake buffer (UB): 150 mM NaCl, 10 mM Hepes-Tris, pH 7.4, 1 mM CaCl2, 2.5 mM KCl, 2.5 mM MgSO4, 10 mM (+) D-glucose. Flp-in™—CHO (Invitrogen Cat n° R758-07)cells stably transfected with mGlyT1b cDNA.
Glycine uptake inhibition assay (mGlyT-1b)
On Day 1 mammallian cells, (Flp-in™—CHO), transfected with mGlyT-1b cDNA, were plated at the density of 40,000 cells/well in complete F-12 medium, without hygromycin in 96-well culture plates. On day 2, the medium was aspirated and the cells were washed twice with uptake buffer (UB). The cells were then incubated for 20 min at 22° C. with either (i) no potential competitor, (ii) 10 mM non-radioactive glycine, (iii) a concentration of a potential inhibitor. A range of concentrations of the potential inhibitor was used to generate data for calculating the concentration of inhibitor resulting in 50% of the effect (e.g. IC50, the concentration of the competitor inhibiting glycine uptake of 50%). A solution was then immediately added containing [^3H]-glycine 60 nM (11-16 Ci/mmol) and 25 μM non-radioactive glycine. The plates were incubated with gentle shaking and the reaction was stopped by aspiration of the mixture and washing (three times) with ice-cold UB. The cells were lysed with scintillation liquid, shaken 3 hours and the radioactivity in the cells was counted using a scintillation counter.

SMILES	IC50 [nM]
CC(=O)c1ccc(N2CCN(C(=O)c3cc([N+](=O)[O-])ccc3NC3CCC3)CC2)c(F)c1 [Example 20, 1-{4-[4-(2-Cyclobutylamino-5-nitro-benzoyl)-piperazin-1-yl]-3-fluoro-phenyl}-ethanone]	2.1
CC(=O)c1ccc(N2CCN(C(=O)c3cc([N+](=O)[O-])ccc3N3CCSCC3)CC2)c(F)c1 [Example 42, 1-{3-Fluoro-4-[4-(5-nitro-2-thiomorpholin-4-yl-benzoyl)-piperazin-1-yl]-phenyl}-ethanone]	3.5
CC(=O)c1ccc(N2CCN(C(=O)c3cc([N+](=O)[O-])ccc3NCC(C)C)CC2)c(F)c1 [Example 19, 1-{3-Fluoro-4-[4-(2-isobutylamino-5-nitro-benzoyl)-piperazin-1-yl]-phenyl}-ethanone]	3
CC(=O)c1ccc(N2CCN(C(=O)c3cc([N+](=O)[O-])ccc3N3CC=CC3)CC2)c(F)c1 [Example 41, 1-(4-{4-[2-(2,5-Dihydro-pyrrol-1-yl)-5-nitro-benzoyl]-piperazin-1-yl}-3-fluoro-phenyl)-ethanone]	14
CC(=O)c1ccc(N2CCN(C(=O)c3cc([N+](=O)[O-])ccc3N3CCC(CO)C3)CC2)c(F)c1 (racemic) [Example 175, 1-(3-Fluoro-4-{4-[2-(3-hydroxymethyl-pyrrolidin-1-yl)-5-nitro-benzoyl]-piperazin-1-yl}-phenyl)-ethanone]	9.7
CNS(=O)(=O)c1ccc(N2CCOCC2)c(C(=O)N2CCN(c3ccc(C(F)(F)F)cc3F)CC2)c1 [Example 263, 3-[4-(2-Fluoro-4-trifluoro-methyl-phenyl)-piperazine-1-carbonyl]-N-methyl-4-morpholin-4-yl-benzene-sulfonamide]	10
CC(=O)c1ccc(N2CCN(C(=O)c3cc([N+](=O)[O-])ccc3NCC3CC3)CC2)c(F)c1 [Example 4, 1-(4-{4-[2-(Cyclopropylmethyl-amino)-5-nitro-benzoyl]-piperazin-1-yl}-3-fluoro-phenyl)-ethanone]	13
CC(=O)c1ccc(N2CCN(C(=O)c3cc([N+](=O)[O-])ccc3N3CCCCCC3)CC2)c(F)c1 [Example 28, 1-{4-[4-(2-Azepan-1-yl-5-nitro-benzoyl)-piperazin-1-yl]-3-fluoro-phenyl}-ethanone]	3.3
CC(=O)c1ccc(N2CCN(C(=O)c3cc([N+](=O)[O-])ccc3N3CCCC3)CC2)c(F)c1 [Example 16, 1-{3-Fluoro-4-[4-(5-nitro-2-pyrrolidin-1-yl-benzoyl)-piperazin-1-yl]-phenyl}-ethanone]	12
CNS(=O)(=O)c1ccc(N2CCCC2)c(C(=O)N2CCN(c3ccc(C(F)(F)F)cc3)CC2)c1 [Example 129, N-Methyl-4-pyrrolidin-1-yl-3-[4-(4-trifluoromethyl-phenyl)-piperazine-1-carbonyl]-benzenesulfonamide]	5
CC(=O)c1ccc(N2CCN(C(=O)c3cc(S(C)(=O)=O)ccc3N3CCCC3)CC2)c(F)c1 [Example 83, 1-{3-Fluoro-4-[4-(5-methanesulfonyl-2-pyrrolidin-1-yl-benzoyl)-piperazin-1-yl]-phenyl}-ethanone]	19
CC(=O)c1ccc(N2CCN(C(=O)c3cc([N+](=O)[O-])ccc3NC3CCCCC3)CC2)c(F)c1 [Example 6, 1-{4-[4-(2-Cyclohexylamino-5-nitro-benzoyl)-piperazin-1-yl]-3-fluoro-phenyl}-ethanone]	10
CC(=O)c1ccc(N2CCN(C(=O)c3cc([N+](=O)[O-])ccc3NC(C)(C)C)CC2)c(F)c1 [Example 176, 1-{3-Fluoro-4-[4-(2-tert.-butylamino-5-nitro-benzoyl)-piperazin-1-yl]-phenyl}-ethanone]	20
CC(=O)c1ccc(N2CCN(C(=O)c3cc([N+](=O)[O-])ccc3N3CCCCC3C)CC2)c(F)c1 (centres unmarked) [Example 35, 1-(3-Fluoro-4-{4-[2-(2-methyl-piperidin-1-yl)-5-nitro-benzoyl]-piperazin-1-yl}-phenyl)-ethanone]	6
C=CCN(C)c1ccc([N+](=O)[O-])cc1C(=O)N1CCN(c2ccc(C(C)=O)cc2F)CC1 [Example 43, 1-(4-{4-[2-(Allyl-methyl-amino)-5-nitro-benzoyl]-piperazin-1-yl}-3-fluoro-phenyl)-ethanone]	9
CNS(=O)(=O)c1ccc(N2CCCC2)c(C(=O)N2CCN(c3ccc(C(F)(F)F)cc3F)CC2)c1 [Example 235, 3-[4-(2-Fluoro-4-trifluoro-methyl-phenyl)-piperazine-1-carbonyl]-N-methyl-4-pyrrolidin-1-yl-benzenesulfonamide]	6.5
CNS(=O)(=O)c1ccc(N2CCCCC2)c(C(=O)N2CCN(c3ccc(C#N)cc3)CC2)c1 [Example 246, 3-[4-(4-Cyano-phenyl)-piperazine-1-carbonyl]-N-methyl-4-piperidin-1-yl-benzenesulfonamide]	11
CS(=O)(=O)c1ccc(N2CCCCC2)c(C(=O)N2CCN(c3ccc(C#N)cc3F)CC2)c1 [Example 216, 3-Fluoro-4-[4-(5-methanesulfonyl-2-piperidin-1-yl-benzoyl)-piperazin-1-yl]-benzonitrile]	12

The remaining molecules from weak to strong by IC50, led by results:

IC50 [nM]	SMILES
19	CC(=O)c1ccc(N2CCN(C(=O)c3cc(S(C)(=O)=O)ccc3N3CCCCCC3)CC2)c(F)c1 [Example 76, 1-{4-[4-(2-Azepan-1-yl-5-methanesulfonyl-benzoyl)-piperazin-1-yl]-3-fluoro-phenyl}-ethanone]
16	CNS(=O)(=O)c1ccc(N2CCCC2)c(C(=O)N2CCN(c3ccc(C#N)cc3)CC2)c1 [Example 233, 3-[4-(4-Cyano-phenyl)-piperazine-1-carbonyl]-N-methyl-4-pyrrolidin-1-yl-benzenesulfonamide]
15	N#Cc1cc(C(F)(F)F)ccc1N1CCN(C(=O)c2cc([N+](=O)[O-])ccc2N2CCOCC2)CC1 [Example 186, 2-[4-(2-Morpholin-4-yl-5-nitro-benzoyl)-piperazin-1-yl]-5-trifluoromethyl-benzonitrile]
14	CC(=O)c1ccc(N2CCN(C(=O)c3cc([N+](=O)[O-])ccc3N3CCC(C)CC3)CC2)c(F)c1 [Example 36, 1-(3-Fluoro-4-{4-[2-(4-methyl-piperidin-1-yl)-5-nitro-benzoyl]-piperazin-1-yl}-phenyl)-ethanone]
14	CNS(=O)(=O)c1ccc(N2CCCCC2)c(C(=O)N2CCN(c3ccc(C#N)cc3F)CC2)c1 [Example 247, 3-[4-(4-Cyano-2-fluoro-phenyl)-piperazine-1-carbonyl]-N-methyl-4-piperidin-1-yl-benzene-sulfonamide]
12	CNS(=O)(=O)c1ccc(N2CCOCC2)c(C(=O)N2CCN(c3ccc(C(F)(F)F)c(F)c3)CC2)c1 [Example 264, 3-[4-(3-Fluoro-4-trifluoro-methyl-phenyl)-piperazine-1-carbonyl]-N-methyl-4-morpholin-4-yl-benzenesulfonamide]
10	CNS(=O)(=O)c1ccc(N2CCCC2)c(C(=O)N2CCN(c3ccc(C#N)cc3F)CC2)c1 [Example 234, 3-[4-(4-Cyano-2-fluoro-phenyl)-piperazine-1-carbonyl]-N-methyl-4-pyrrolidin-1-yl-benzenesulfonamide]
9	CNS(=O)(=O)c1ccc(N2CCCC2)c(C(=O)N2CCN(c3ccc(C(C)=O)cc3F)CC2)c1 [Example 133, 3-[4-(4-Acetyl-2-fluoro-phenyl)-piperazine-1-carbonyl]-N-methyl-4-pyrrolidin-1-yl-benzenesulfonamide]
